According to patent publication US20030171345A1 (priority 2001, published 2003):
Read-outs that look alike come from different tables or passages of the source.

How the values were obtained:
[1] = tested on: estrogen receptor preparations from rat uteri; test: Competitive 3H-estradiol binding, rat uterus cytosol estrogen receptor; conditions: 3H-estradiol as ligand, estradiol = 100
[2] = tested on: estrogen receptor preparations from rat prostates; test: Competitive 3H-estradiol binding, rat prostate cytosol estrogen receptor; conditions: for Rat prost. ER(RBA): 3H-estradiol as ligand, rat prostate cytosol, estradiol = 100
hERβ [3] = conditions: cited from earlier work
hERβ [4] = test: Relative binding affinity to hERβ (Kuiper et al.); set-up: species or system human; conditions: quotient of RBA to ERβ and ERα
Excerpt: In this case, it is assumed that ERβ predominates in the rat prostates over ERα, and ERα predominates in rat uteri over ERβ.

[5] = relative binding affinity, estradiol = 100

Molecule: C[C@]12CCC(O)CC1=CC[C@@H]1[C@@H]2CC[C@]2(C)C(O)CC[C@@H]12 (stereo partly drawn) [5-Androstene-diol]
- Rat uterus ER(RBA) [1]: 0.1
- Rat prost. ER(RBA) [2]: 5
- prost. ER/uterus ER ([2]; ratio of the binding to prostate and uterus receptors): 50
- hERβ RBA (hERβ [3]): 17
- ERβ/ERα (hERβ [4]): 3

Molecule: C[C@]12CC[C@@H]3c4ccc(O)cc4CC[C@H]3[C@@H]1C[C@@H](O)[C@@H]2O [Estriol]
- hERβ RBA (hERβ [3]; [5]): 21

Molecule: Estradiol
- Rat uterus ER(RBA) [1]: 100
- Rat prost. ER(RBA) [2]: 100
- hERβ RBA (hERβ [3]; [5]): 100
